Laboratory results: ChEMBL document CHEMBL1159140, “DuP 747: sar study” (1992)

Tests used:
Mus musculus [1] = species on record: Mus musculus; assay: animal or person; assay type: functional; conditions: sc
Mus musculus [2] = species on record: Mus musculus; assay: animal or person; assay type: functional; conditions: po

Compound	ED50 (Mus musculus [1]) [mg/kg]	ED50 (Mus musculus [2]) [mg/kg]
COc1cccc2c1CC[C@H](N1CCCC1)[C@H]2N(C)C(=O)CSc1ccc(Cl)c(Cl)c1.Cl	47	> 81
COc1cccc2c1CC[C@H](N1CCCC1)[C@H]2N(C)C(=O)CCc1ccc(Cl)c(Cl)c1.Cl	38	81
CN(C(=O)Cc1ccc(Cl)c(Cl)c1)[C@H]1c2cccc(OC(=O)c3ccccc3)c2CC[C@@H]1N1CCCC1.Cl	0.71	6.4
COc1ccc2c(c1)CC[C@H](N1CC=CC1)[C@H]2N(C)C(C)=O.Cl	0.24	3.4
COc1ccc2c(c1)CC[C@H](N1CCCCC1)[C@H]2N(C)C(C)=O.Cl	> 81	> 81
COc1ccc2c(c1)CC[C@H](N1C=CN(C)CC1)[C@H]2N(C)C(C)=O.Cl	> 81	> 81
COc1ccc2c(c1)CC[C@H](N1CCCC1)[C@H]2N(C)C=O.Cl	47	81
CN(C(=O)Cc1ccc(Cl)c(Cl)c1)[C@H]1c2ccccc2-c2ccccc2[C@@H]1N1CCCC1.Cl	> 81	> 81
CN(C(=O)Cc1ccc(Cl)c(Cl)c1)[C@H]1CCc2ccccc2[C@@H]1N1CCCC1.Cl	0.16	> 81
